{"source": "patent US6413996B2", "about": "“Diaminocyclobutene-3,4-dione derivatives, their preparation and use” (Neurosearch A/S, priority 1998, dated 2002)", "key": {"[1]": {"tested_on": "chloride channels in normal erythrocytes", "assay": "Cl- conductance (GCl) from concomitant measurement of conductive Cl- netfluxes and membrane potentials in erythrocyte suspensions", "format": "cell-based, human", "conditions": "suspension of normal erythrocytes", "description": "(§1) The compounds of the present invention are potent blockers of chloride channels in normal as well as sickle cell erythrocytes.\n(§2) All dose-response experiments were therefore performed by concomitant measurements of conductive netfluxes of Cl^− (JCl) and membrane potentials (Vm) in suspensions of erythrocytes (Bennekou, P. and Christophersen, P. (1986), Flux ratio of Valinomycin - Mediated K^+ Fluxes across the Human Red Cell Membrane in the presence of the Protronophore CCCP. J. Membrane Biol. 93, 221-227. ). The membrane Cl^−conductances (GCl) were calculated by the following equation (Hodgkin, A. L. and Huxley, A. F. (1952) The components of membrane conductance in the giant axon of Loligo. J. Physiol. Lond. 116, 449-472): [formula]\n(§3) where F is the Faraday constant, ECl is the Nernst potential for the Cl-ion."}, "normal erythrocytes": {"tested_on": "normal erythrocytes", "assay": "K+-flux estimated by measuring extracellular K+-concentration vs time", "format": "cell-based", "conditions": "10 μM", "description": "Deoxygenation induced permeability increases of sickle cells were estimated by measuring the extracellular K^+-concentration vs time. […] The K^+ flux from oxygenated sickle erythrocytes was 2-3 times higher than from normal erythrocytes and these fluxes was accelerated 4 - 8 times upon deoxygenation."}, "[2]": {"tested_on": "chloride channels in homozygoteous sickle cell erythrocytes", "assay": "Cl- conductance (GCl) in suspensions of sickle cell erythrocytes", "format": "cell-based", "conditions": "oxygenated as well as deoxygenated homozygoteous sickle cell erythrocytes", "description": "as §1, §2, §3"}, "[3]": {"tested_on": "osteoclast bone resorbtion", "conditions": "in vitro (Ohba et al, 1996); cited from earlier work"}, "[4]": {"tested_on": "vacuolar-type proton pump", "conditions": "cited from earlier work"}, "bone degration": {"tested_on": "bone degration", "conditions": "in vivo, growing young rats (Keeling et al, 1997); cited from earlier work"}}, "data": [{"smiles": "O=C(Nc1cccc(C(F)(F)F)c1)Nc1ccccc1C(=O)O", "note": "[3-Trifluoromethylphenyl-2-carboxyphenyl urea]", "values": [{"measurement": "block of GCl", "setting": "[1]", "value": "more than 95%"}, {"measurement": "Kd", "setting": "[1]; read-out: KD-value for block of GCl", "value": 1300, "unit": "nM"}, {"measurement": "sensitivity of K+-fluxes to compound", "setting": "normal erythrocytes", "value": "insensitive"}, {"measurement": "block of GCl from sickle cell erythrocytes", "setting": "[2]", "value": "equipotently blocked"}]}, {"smiles": "CC(=O)Nc1nnc(S(N)(=O)=O)s1", "note": "[acetacolamide]", "values": [{"measurement": "effect on bone resorbtion in pit formation assay", "setting": "[3]", "value": "effective"}]}, {"smiles": "CO/C1=C\\C(C)=C\\[C@@H](C)[C@@H](O)[C@@H](C)C/C(C)=C/C=C/[C@H](OC)[C@@H]([C@@H](C)[C@@H](O)[C@H](C)[C@@]2(O)C[C@@H](O)[C@H](C)[C@@H](C(C)C)O2)OC1=O", "note": "[bafilomycin A1]", "values": [{"measurement": "block of the proton pump", "setting": "[4]", "value": "extremely potent, reversible inhibitor"}, {"measurement": "effect on bone degration", "setting": "bone degration", "value": "depresses bone degration"}, {"measurement": "effect on bone resorbtion in pit formation assay", "setting": "[3]", "value": "completely eliminates bone resorbtion"}]}, {"smiles": "COc1ccc2[nH]c([S+]([O-])Cc3ncc(C)c(OC)c3C)nc2c1", "note": "(stereo not drawn) [omeprazol]", "values": [{"measurement": "block of the proton pump", "setting": "[4]", "value": "ineffective"}]}]}
